Source: ChEMBL document CHEMBL1201862, “PubChem BioAssay data set” (2004)
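Assay format: 96-well plates, 48-hour exposure. GI50 marks 50% less growth.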 Activity calls are given as the source filed them. Rule as the data show it: active = GI50 up to about 1.1 µM and inactive = higher.

Legend:
Test in all cases: NCI tumour cell line growth inhibition, 48 h
CCRF-CEM = tested on: CCRF-CEM
Malme-3M = tested on: Malme-3M
SNB-75 = tested on: SNB-75
A549 = tested on: A549
IGROV-1 = tested on: IGROV-1
M14 = tested on: M14
COLO 205 = tested on: COLO 205
TK-10 = tested on: TK-10
MOLT-4 = tested on: MOLT-4
SN12C = tested on: SN12C
SNB-19 = tested on: SNB-19
HCT-116 = tested on: HCT-116
RPMI-8226 = tested on: RPMI-8226
EKVX = tested on: EKVX
SR = tested on: SR
LOX IMVI = tested on: LOX IMVI
HCT-15 = tested on: HCT-15
HL-60 = tested on: HL-60
HCC 2998 = tested on: HCC 2998
HOP-62 = tested on: HOP-62
ACHN = tested on: ACHN
HT-29 = tested on: HT-29
UO-31 = tested on: UO-31
NCI-H23 = tested on: NCI-H23
SW-620 = tested on: SW-620
SK-MEL-28 = tested on: SK-MEL-28
UACC-62 = tested on: UACC-62
SF-539 = tested on: SF-539
CAKI-1 = tested on: CAKI-1
Hs-578T = tested on: Hs-578T
DU-145 = tested on: DU-145
SK-OV-3 = tested on: SK-OV-3
OVCAR-8 = tested on: OVCAR-8
NCI-H522 = tested on: NCI-H522
MCF7 = tested on: MCF7
NCI-H460 = tested on: NCI-H460
MDA-N = tested on: MDA-N
NCI-H226 = tested on: NCI-H226
SF-295 = tested on: SF-295
MDA-MB-231 = tested on: MDA-MB-231
SF-268 = tested on: SF-268
MDA-MB-435 = tested on: MDA-MB-435
T47D = tested on: T47D
SK-MEL-5 = tested on: SK-MEL-5
BT-549 = tested on: BT-549
KM12 = tested on: KM12
A498 = tested on: A498
PC-3 = tested on: PC-3
786-0 = tested on: 786-0
UACC-257 = tested on: UACC-257

Measured: GI50

Cc1nn(C(=O)Cc2ccccc2)c2c1C(c1ccc(N(C)C)cc1)SC(=N)N2 (stereo not given)
> 100 µM: HCT-15
inactive: CCRF-CEM > 100 µM | Malme-3M > 100 µM | SNB-75 12.4 µM | A549 > 100 µM | IGROV-1 > 100 µM | M14 > 100 µM | COLO 205 > 100 µM | TK-10 76.6 µM | MOLT-4 > 100 µM | SN12C > 100 µM | SNB-19 > 100 µM | HCT-116 > 100 µM | RPMI-8226 > 100 µM | EKVX > 100 µM | SR > 100 µM | LOX IMVI > 100 µM | HL-60 > 100 µM | HCC 2998 > 100 µM | HOP-62 38.3 µM | ACHN > 100 µM | HT-29 > 100 µM | UO-31 > 100 µM | NCI-H23 > 100 µM | SW-620 > 100 µM | SK-MEL-28 > 100 µM | UACC-62 45.6 µM | SF-539 46.1 µM | CAKI-1 > 100 µM | Hs-578T 24.5 µM | DU-145 > 100 µM | SK-OV-3 > 100 µM | OVCAR-8 > 100 µM | NCI-H522 > 100 µM | MCF7 > 100 µM | NCI-H460 > 100 µM | MDA-N > 100 µM | NCI-H226 > 100 µM | SF-295 48.8 µM | MDA-MB-231 > 100 µM | SF-268 > 100 µM | MDA-MB-435 > 100 µM | T47D > 100 µM | SK-MEL-5 > 100 µM | BT-549 51.5 µM | KM12 > 100 µM | A498 > 100 µM | PC-3 > 100 µM | 786-0 > 100 µM | UACC-257 > 100 µM
